Measured values published in patent US20060069132A1, “Azolecarboxamide herbicides” (priority 2004, published 2006).

Legend:
[1] = test system: wheat cv. Retical; experiment: Test H safening on wheat by naphthalic anhydride seed treatment, pre-/postemergence; format: in vivo, Triticum aestivum; design: key to Response of wheat, Without naphthalic anhydride seed treatment: 0 = no effect, 100 = complete plant death, vs untreated control
Protocol: This test evaluated the safening of compounds of the invention on wheat (Triticum aestivumL.) cv. ‘Retical’ by seed treatment with naphthalic anhydride. Some of the wheat seed was treated with napthalic anhydride as a 1% by weight seed dressing. The wheat seed were planted in pots containing pasteurized Sassafras sandy loam soil. For postemergence testing the plants were grown 8 days to the 2-leaf stage at time of treatment. Preemergence treatments were applied the same day that the seeds were planted. Treatments were applied by spraying the test compounds formulated in a non-phytotoxic solvent mixture, using a flat fan nozzle and a spray volume of 280 L/ha. The preemergence treatments were triply replicated and the results subsequently averaged. The pots were placed on a growth chamber bench using a complete randomized block design for the preemergence test except for the first replicate, which was unrandomized. The plants were grown in the growth chamber and watered as needed with a dilute nutrient solution containing 200 ppm of N. Illumination was provided by fluorescent lamps giving 200-300 μE/m^2/S of photosynthetically active radiation over a 14-hour photoperiod. The temperature was maintained at 23±2° C. during the day and 17±2° C. at night. The effects of the treatments were rated 25 days after preemergence treatment and 14 days after postemergence treatment. The plant response was visually rated in comparison to untreated controls using a scale of 0 to 100, with 0 representing no effect and 100 representing complete plant death. The results for the compounds tested preemergence are listed in Table H1, and the results for the compounds tested postemergence are listed in Table H2.

[2] = test system: green foxtail; experiment: Test F pre-/postemergence herbicide test; format: in vivo, Setaria viridis
Source text: (§1) Seeds of plant species selected from annual blugrass (Poa annua L.), blackgrass (Alopecurus myosuroides Huds.), catchweed bedstraw (Gallium aparine L.), common chickweed (Stellaria media (L.) Vill./Cyr.), downy bromegrass (Bromus tectorum L.), green foxtail (Setaria viridis (L.) Beauv.), Italian ryegrass (Lolium multiflorum Lam.), kochia (Kochia scoparia (L.). Schrad.), lambsquarters (Chenopodium album L.), littleseed canarygrass (Phalaris minor Retz.), pigweed (Amaranthus retroflexus L.), Russian thistle (Salsola kali L. ssp. Ruthenica (Iljin) Soo), wild buckwheat (Polygonum convolvulus L.), wild mustard (Sinapis arvensis L.), wild oat (Avena fatua L.), windgrass (Apera spica-venti (L.) Beauv.), winter barley (Hordeum vulgare L.), and wheat (Triticum aestivum L.) were planted and treated preemergence with test chemicals formulated in a non-phytotoxic solvent mixture which included a surfactant.
(§2) At the same time, plants selected from these crop and weed species were treated with postemergence applications of some of the test chemicals formulated in the same manner. Plants ranged in height from 2 to 18 cm (1- to 4-leaf stage) for postemergence treatments. Treated plants and controls were maintained in a greenhouse for 12 to 14 days, after which time all species were compared to controls and visually evaluated. Plant response ratings, summarized in Table F, are based on a scale of 0 to 100 where 0 is no effect and 100 is complete control. A dash (-) response means no test result.

[3] = test system: wild oat; experiment: Test F pre-/postemergence herbicide test; format: in vivo, Avena fatua
Source text: as §1, §2

[4] = test system: annual blugrass; experiment: Test F pre-/postemergence herbicide test; format: in vivo, Poa annua
Source text: as §1, §2

[5] = test system: common chickweed; experiment: Test F pre-/postemergence herbicide test; format: in vivo, Stellaria media
Source text: as §1, §2

[6] = test system: lambsquarters; experiment: Test F pre-/postemergence herbicide test; format: in vivo, Chenopodium album
Source text: as §1, §2

For `CCn1nc(C(C)(C)C)cc1C(=O)Nc1cc(C(=O)N(C)C)ccc1F` [Compound 6, N-[5-[(dimethylamino)carbonyl]-2-fluorophenyl]-3-(1,1-dimethylethyl)-1-ethyl-1H-pyrazole-5-carboxamide], the “Response of wheat, With 1% naphthalic anhydride seed treatment” value ([1]; postemergence, 62 g a.i./ha) was 65, the “Response of wheat, Without naphthalic anhydride seed treatment” value ([1]; postemergence, 62 g a.i./ha) was 75 and the “Response of wheat, With 1% naphthalic anhydride seed treatment” value ([1]; postemergence, 125 g a.i./ha) was 75. For the same molecule, the “Response of wheat, Without naphthalic anhydride seed treatment” value ([1]; postemergence, 125 g a.i./ha) was 75, the “Response of wheat, With 1% naphthalic anhydride seed treatment” value ([1]; preemergence, 62 g a.i./ha) was 77 and the “Response of wheat, Without naphthalic anhydride seed treatment” value ([1]; preemergence, 62 g a.i./ha) was 99. For the same molecule, the “Response of wheat, With 1% naphthalic anhydride seed treatment” value ([1]; preemergence, 125 g a.i./ha) was 100 and the “Response of wheat, Without naphthalic anhydride seed treatment” value ([1]; preemergence, 125 g a.i./ha) was 100.
In the case of `CCn1nc(C(C)(C)C)cc1C(=O)Nc1cc(C(=O)OC(C)C)c(F)cc1F` [Compound 248], the “Plant response rating (0-100), Foxtail, Green” value (from here on “Plant response rating … Green”) ([2]; Postemergence, 31 g ai/ha) is reported as 50, the “Plant response rating … Green” value ([2]; Postemergence, 62 g ai/ha) is reported as 60 and the “Plant response rating … Green” value ([2]; Postemergence, 125 g ai/ha) is reported as 60. For the same molecule, the “Plant response rating … Green” value ([2]; Postemergence, 250 g ai/ha) was 65, the “Plant response rating … Green” value ([2]; Preemergence, 31 g ai/ha) was 65 and the “Plant response rating … Green” value ([2]; Preemergence, 62 g ai/ha) was 65. For the same molecule, the “Plant response rating … Green” value ([2]; Preemergence, 125 g ai/ha) was 100, the “Plant response rating … Green” value ([2]; Preemergence, 250 g ai/ha) was 100 and the “Plant response rating (0-100), Oat, Wild” value ([3]; Postemergence, 31 g ai/ha) was 45. For the same molecule, the “Plant response rating (0-100), Oat, Wild” value ([3]; Postemergence, 62 g ai/ha) was 45, the “Plant response rating (0-100), Oat, Wild” value ([3]; Postemergence, 125 g ai/ha) was 60 and the “Plant response rating (0-100), Oat, Wild” value ([3]; Postemergence, 250 g ai/ha) was 65. For the same molecule, the “Plant response rating (0-100), Oat, Wild” value ([3]; Preemergence, 31 g ai/ha) was 40, the “Plant response rating (0-100), Oat, Wild” value ([3]; Preemergence, 62 g ai/ha) was 45 and the “Plant response rating (0-100), Oat, Wild” value ([3]; Preemergence, 125 g ai/ha) was 50. The “Plant response rating (0-100), Oat, Wild” value ([3]; Preemergence, 250 g ai/ha) was 65, the “Plant response rating (0-100), Bluegrass” value ([4]; Postemergence, 31 g ai/ha) was 50 and the “Plant response rating (0-100), Bluegrass” value ([4]; Postemergence, 62 g ai/ha) was 50. For the same molecule, the “Plant response rating (0-100), Bluegrass” value ([4]; Postemergence, 125 g ai/ha) was 60, the “Plant response rating (0-100), Bluegrass” value ([4]; Postemergence, 250 g ai/ha) was 70 and the “Plant response rating (0-100), Bluegrass” value ([4]; Preemergence, 31 g ai/ha) was 70. The “Plant response rating (0-100), Bluegrass” value ([4]; Preemergence, 62 g ai/ha) was 70, the “Plant response rating (0-100), Bluegrass” value ([4]; Preemergence, 125 g ai/ha) was 100 and the “Plant response rating (0-100), Bluegrass” value ([4]; Preemergence, 250 g ai/ha) was 100. The “Plant response rating (0-100), Chickweed” value ([5]; Postemergence, 31 g ai/ha) was 65, the “Plant response rating (0-100), Chickweed” value ([5]; Postemergence, 62 g ai/ha) was 65 and the “Plant response rating (0-100), Chickweed” value ([5]; Postemergence, 125 g ai/ha) was 98. For the same molecule, the “Plant response rating (0-100), Chickweed” value ([5]; Postemergence, 250 g ai/ha) was 100, the “Plant response rating (0-100), Chickweed” value ([5]; Preemergence, 31 g ai/ha) was 100 and the “Plant response rating (0-100), Chickweed” value ([5]; Preemergence, 62 g ai/ha) was 100. For the same molecule, the “Plant response rating (0-100), Chickweed” value ([5]; Preemergence, 125 g ai/ha) was 100, the “Plant response rating (0-100), Chickweed” value ([5]; Preemergence, 250 g ai/ha) was 100 and the “Plant response rating (0-100), Lambsquarters” value ([6]; Postemergence, 31 g ai/ha) was 35. For the same molecule, the “Plant response rating (0-100), Lambsquarters” value ([6]; Postemergence, 62 g ai/ha) was 60, the “Plant response rating (0-100), Lambsquarters” value ([6]; Postemergence, 125 g ai/ha) was 60 and the “Plant response rating (0-100), Lambsquarters” value ([6]; Postemergence, 250 g ai/ha) was 60. For the same molecule, the “Plant response rating (0-100), Lambsquarters” value ([6]; Preemergence, 31 g ai/ha) was 40, the “Plant response rating (0-100), Lambsquarters” value ([6]; Preemergence, 62 g ai/ha) was 40 and the “Plant response rating (0-100), Lambsquarters” value ([6]; Preemergence, 125 g ai/ha) was 100. The “Plant response rating (0-100), Lambsquarters” value ([6]; Preemergence, 250 g ai/ha) was 100.
